Results published in patent US20220380828A1, “MICROBIAL DETECTION PLATFORM” (NUCLEASE PROBE TECHNOLOGIES, INC., priority 2019, published 2022).
d = 2'-deoxy (DNA); m = 2'-O-methyl

Key:
[1] = test system: S. aureus (ATCC 29213); assay: S. aureus detection on probe-embedded agar Petri dishes (fluorescence imaging); type: cell-based, Staphylococcus aureus; details: agar plates streaked with <1000 cells, 37° C., fluorescence plate imaging (SASelect: chromogenic agar)
Experimental: (§1) Tryptic Soy Agar (BD Cat. #236950) was autoclaved according to the manufacturer's instructions and cooled down to 50-60° C. Then, pre-sterilized components, including Tris-HCl (pH 9.0) (adjusted to 50 mM using the following stock solution: Rockland Cat. #MB028-1000) and CaCl2) (adjusted to 15 mM using the following stock solution: Sigma-Aldrich Cat. #21115-100ML) were added and the resulting mixture was poured into 60 mm Petri dishes (Corning Cat. #430589). 1 μM or 2 μM AttoPoly T 4mer (IDT, custom order) and 4 μg/mL Cefoxitin (Alfa Aesar Cat. #AAJ6689103) were also included where indicated. The agar mixtures were allowed to solidify, then the Petri dishes were sealed with parafilm (Bemis Cat. #999) and stored at 4° C., protected from light.
S. aureus (ATCC 29213) cultures were grown in Tryptic Soy Broth (BD Cat. #211825) overnight at 37° C. with shaking at 300-400 rpm. Dilutions to […] were made and these were streaked on agar Petri dishes with 1 μL calibrated inoculation loops (Fisher Scientific, Fisherbrand Cat. #22363601). […]
(§2) Two fluorescence measurement formats were used to detect the growth of target bacterial species on agar growth media. […] The fluorescence of the 96-well plates was also measured with a Bio-Tek fluorescence plate-reader using fluorescence filters tailored for green fluorescence, providing quantitative data.

[2] = test system: E. coli (ATCC 25922); assay: Specificity control on probe-embedded agar plates: E. coli; type: cell-based, Escherichia coli; details: 8 hours after plating
Experimental: as §1
(§3) Two fluorescence measurement formats were used to detect the growth of target bacterial species on agar growth media. Agar media poured in 60 mm dishes or distributed to the wells of 96-well clear-bottomed plates were placed on an LED transilluminator (IORodeo) that emits blue light. A light filter was placed over the plates or dishes to block the LED-emitted light, but the filter still allows green light to pass, which is captured with an iPhone camera. […] The fluorescence of the 96-well plates was also measured with a Bio-Tek fluorescence plate-reader using fluorescence filters tailored for green fluorescence, providing quantitative data.

[3] = test system: MRSA (ATCC BAA1707); assay: MRSA vs MSSA detection on probe-embedded agar with/without cefoxitin, 96-well plates; type: cell-based, Staphylococcus aureus; details: 1 μM probe in TSA-based media with/without cefoxitin, 37° C.
Experimental: Tryptic Soy Agar (BD Cat. #236950) was autoclaved according to the manufacturer's instructions and cooled down to 50-60° C. Then, pre-sterilized additives, including Tris*HCl (pH 9.0) (adjusted to 50 mM with the following stock solution: Rockland Cat. #MB028-1000) and CaCl2) (adjusted to 15 mM with the following stock solution: Sigma-Aldrich Cat. #21115-100ML) were added. 1 μM or 2 μM AttoPoly T 4mer and 4 μg/mL Cefoxitin (Alfa Aesar Cat. #AAJ6689103) were also included where indicated. 90 μL of the agar mixtures were pipetted into the wells of clear-bottom 96-well plates (Thermo Scientific, nunc Cat. #265301) and allowed to solidify. […]
(§4) S. aureus (ATCC 29213) cultures were grown in Tryptic Soy Broth (BD Cat. #211825) overnight at 37° C. with shaking at 300-400 rpm. […] Plates were incubated at 37° C. and imaged using an IO-Rodeo fluorescent imager (IO-Rodeo, Large, Blue LED) and an iPhone 8 camera, and fluorescence was also concurrently measured with a Synergy H1 microplate reader (BioTek).
as §2

[4] = test system: S. lugdunensis (ATCC 700328); assay: Specificity control on probe-embedded agar plates: S. lugdunensis; type: cell-based, Staphylococcus lugdunensis; details: 8 hours after plating
Experimental: as §1, §3

[5] = target: T1, Endonuclease I (Escherichia coli, UniProt P25736); assay: Probe sensitivity to Endonuclease I; type: biochemical
T1 sequence (P25736 23-235): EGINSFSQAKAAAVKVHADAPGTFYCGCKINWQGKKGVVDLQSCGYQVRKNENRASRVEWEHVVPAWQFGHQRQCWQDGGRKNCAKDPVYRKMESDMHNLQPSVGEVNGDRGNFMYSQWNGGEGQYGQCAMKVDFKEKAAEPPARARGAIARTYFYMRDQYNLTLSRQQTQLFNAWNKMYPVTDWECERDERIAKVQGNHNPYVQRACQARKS

[6] = test system: nuclease of S. pyogenes; assay: Probe sensitivity to S. pyogenes nuclease; type: biochemical
[7] = test system: S. pyogenes (ATCC 12344); assay: S. pyogenes detection on selective fluorogenic agar in 96-well plates; type: cell-based, Streptococcus pyogenes; details: 0.5 μM probe, 96-well plate, in the presence of colistin (2 μg/ml), 37° C.
Experimental: Tryptic Soy Agar (BD Cat. #236950) was autoclaved according to the manufacturer's instructions and cooled down to 50-60° C. Then, pre-sterilized components, including Tris-HCl (pH 8.0) (adjusted to 50 mM with the following stock solution: Fisher Scientific Cat. #BP1758-100) and MgCl2 (adjusted to 20 mM with the following stock solution: Invitrogen Cat. #AM9530G) were added. 0.5 μM Self-Hyb ATTO and 2 μg/mL Colistin (Alfa Aesar Cat. #AAJ67415XF) were also included where indicated. 90 μL of the agar mixtures were pipetted into the wells of clear-bottom 96-well plates (Thermo Scientific, nunc Cat. #265301) and allowed to solidify. […]
as §4, with “pyogenes (ATCC® 12344™)” for “aureus (ATCC 29213)”, “with” for “using”, “also measured” for “also”, “concurrently” for “concurrently measured”
as §2

[8] = test system: S. pyogenes (ATCC 12344); assay: S. pyogenes detection on probe-embedded agar plates; type: cell-based, Streptococcus pyogenes; details: agar plates with 0.5 μM probe, streaked with 10,000 cells, 37° C.
Experimental: Tryptic Soy Agar (BD Cat. #236950) was autoclaved according to the manufacturer's instructions and cooled down to 50-60 degrees C. Then, pre-sterilized components including Tris-HCl (pH 8.0) (adjusted to 50 mM with the following stock solution: Fisher Scientific Cat. #BP1758-100) and MgCl2 (adjusted to 20 mM with the following stock solution: Invitrogen Cat. #AM9530G) were added and the resulting mixture was poured into 60 mm Petri dishes (Corning Cat. #430589). 0.5 μM Self-Hyb ATTO and 2 μg/mL Colistin (Alfa Aesar Cat. #AAJ67415XF) were also included where indicated. The agar mixtures were allowed to solidify. Then the Petri dishes were sealed with parafilm (Bemis Cat. #999) and stored at 4° C., protected from light.
S. pyogenes (ATCC® 12344) cultures were grown in Tryptic Soy Broth (BD Cat. #211825) overnight at 37° C. with shaking at 300-400 rpm. Dilutions to […] were made and streaked on agar Petri dishes with 1 μL calibrated inoculation loops (Fisher Scientific, Fisherbrand Cat. #22363601). […]
as §2

[9] = test system: E. coli (ATCC 25922); assay: E. coli detection on fluorogenic agar in 96-well plates; type: cell-based, Escherichia coli; details: 0.5 μM probe in TSA-based media, 96-well plate, 37° C.; vs S. aureus and S. pyogenes
Experimental: Tryptic Soy Agar (BD Cat. #236950) was autoclaved according to the manufacturer's instructions and cooled down to 50-60° C. Then, pre-sterilized components, including Tris-HCl (pH 8.0) (adjusted to 50 mM with the following stock solution: Fisher Scientific Cat. #BP1758-100), MgCl2 (adjusted to 20 mM with the following stock solution: Invitrogen Cat. #AM9530G), and Triton® X-100 (adjusted to 1% with the following stock solution: Fisher Scientific Cat. #50-751-7090). 0.5 μM Self-Hyb ATTO was also included where indicated. […]
as §4, with “E. coli” for “S. aureus”, “25922)” for “29213)”, “also measured” for “also”, “concurrently” for “concurrently measured”
as §2

[10] = test system: most nucleases; assay: Probe resistance to nucleases in general; type: biochemical
[11] = target: micrococcal nuclease of S. aureus (Staphylococcus aureus, UniProt P00644); assay: Probe sensitivity to micrococcal nuclease; type: biochemical

## 5′-ATTO488-TTTT-ZEN-RQSp-3′ [AttoPoly T 4mer]
[1]
  time to detection of S. aureus colonies after plating: ≤ 8 h
[2]
  fluorescence produced by E. coli on probe-embedded agar: did not produce fluorescence
[3]
  time at which MRSA can be distinguished from MSSA: 8 to 10 h
[4]
  fluorescence produced by S. lugdunensis on probe-embedded agar: did not produce fluorescence

## 5′-ATTO488-fC-fU-fA-fC-fG-fU-fA-fG-ZEN-RQSp-3′ (CUACGUAG; 2'-fluoro; ATTO488, ZEN, RQSp quencher; (1)..(8) Each base pair in this sequence is a 2′-fluoro modified nucleotide. Please see Table 1 of the Specification.) [Self-Hyb ATTO]
[5]
  sensitivity to Endonuclease I: sensitive
[6]
  sensitivity to a nuclease of S. pyogenes: sensitive
[7]
  time to detection of low concentrations of S. pyogenes: ≤ 10 h
[8]
  time to detection of S. pyogenes: 19 h
[9]
  time to specific detection of E. coli: 8 h

## CTACGTAG (DNA, backbone not given here; further chemistry not fully specified) [DNA-SH]
[5]
  sensitivity to Endonuclease I: sensitive

## fUfUfUfAfUfGfCfAfUfAfAfA (UUUAUGCAUAAA; all 2'-fluoro, backbone not given here; thiol or fluorophore label) [SH-Fl 5UUU]
[5]
  sensitivity to Endonuclease I: sensitive
[6]
  sensitivity to a nuclease of S. pyogenes: sensitive

## mCmUmAmCmGmUmAmG (CUACGUAG; all 2'-O-methyl, backbone not given here; thiol modification) [2′-OMe SH]
[10]
  resistance to nucleases: resistant to most nucleases

## mUTTmUmUmUmUmUmUmUmU (UTTUUUUUUUU; sugars from the 5' end m1 d2 m8, backbone not given here) [P2&3 TT Probe]
[11]
  sensitivity to micrococcal nuclease of S. aureus: sensitive
